Measurements as given in doi:10.1101/2023.12.04.569845, “Identification of 4-(6-((2-methoxyphenyl)amino)pyrazin-2-yl)benzoic acids as CSNK2A inhibitors with antiviral activity and improved selectivity over PIM3” (bioRxiv, 2023).
Like-named read-outs stand apart in the source and are kept apart here. One block for each compound: values may come before it.

What was measured:
Test in all cases: biochemical
[1] = target: PAK4 (Homo sapiens, UniProt O96013); set-up: Thermal shift (DSF, SYPRO Orange) Tm shift of recombinant kinase domains at 10 uM compound
[2] = target: WNK1 (Homo sapiens, UniProt Q9H4A3); set-up: Thermal shift (DSF, SYPRO Orange) Tm shift of recombinant kinase domains at 10 uM compound
[3] = target: T1, RSK1_b (Homo sapiens, UniProt Q15418); set-up: Thermal shift (DSF, SYPRO Orange) Tm shift of recombinant kinase domains at 10 uM compound
T1 construct: gene RPS6KA1; second (C-terminal) kinase domain

[4] = target: T2, AurA (Homo sapiens, UniProt O14965); set-up: Thermal shift (DSF, SYPRO Orange) Tm shift of recombinant kinase domains at 10 uM compound
T2 construct: gene AURKA
T2 sequence (O14965 1-403): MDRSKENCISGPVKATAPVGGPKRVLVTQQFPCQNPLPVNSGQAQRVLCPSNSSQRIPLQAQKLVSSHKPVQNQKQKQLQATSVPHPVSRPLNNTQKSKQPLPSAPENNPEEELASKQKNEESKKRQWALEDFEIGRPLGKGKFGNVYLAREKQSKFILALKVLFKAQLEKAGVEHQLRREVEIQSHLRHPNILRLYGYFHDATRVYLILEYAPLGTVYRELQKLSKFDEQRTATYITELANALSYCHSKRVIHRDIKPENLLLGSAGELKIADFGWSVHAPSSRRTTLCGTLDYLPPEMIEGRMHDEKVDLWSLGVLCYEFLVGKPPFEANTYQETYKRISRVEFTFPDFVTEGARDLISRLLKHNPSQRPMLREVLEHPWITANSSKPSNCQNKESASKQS

[5] = target: T3, JNK3 (Homo sapiens, UniProt P53779); set-up: Thermal shift (DSF, SYPRO Orange) Tm shift of recombinant kinase domains at 10 uM compound
T3 construct: gene MAPK10

[6] = target: DAPK1 (Homo sapiens, UniProt P53355); set-up: Thermal shift (DSF, SYPRO Orange) Tm shift of recombinant kinase domains at 10 uM compound
[7] = target: T4, Erk2 (Homo sapiens, UniProt P28482); set-up: Thermal shift (DSF, SYPRO Orange) Tm shift of recombinant kinase domains at 10 uM compound
T4 construct: gene MAPK1

[8] = target: FGFR2 (Homo sapiens, UniProt P21802); set-up: Thermal shift (DSF, SYPRO Orange) Tm shift of recombinant kinase domains at 10 uM compound
[9] = target: T5, ATK3 (Homo sapiens, UniProt Q9Y243); set-up: Thermal shift assay (SYPRO Orange DSF) of recombinant kinase domains; Tm shift
T5 construct: gene AKT3; kinase domain
Procedure: (§1) S23 Thermal stability kinase selectivity. The assay was performed as previously described. 9,10 Briefly, recombinant protein kinase domains at a concentration of 2 μM were mixed with 10 μM compound in a buffer containing 20 mM HEPES, pH 7.5, and 500 mM NaCl. SYPRO Orange (5000×, Invitrogen) was added as a fluorescence probe (1 µl per mL). Subsequently, temperature-dependent protein unfolding profiles were measured using the QuantStudio™ 5 realtime PCR machine (Thermo Fisher). Excitation and emission filters were set to 465 nm and 590 nm, respectively. The temperature was raised with a step rate of 3°C per minute. Data points were analysed with the internal software (Thermal Shift SoftwareTM Version 1.4, Thermo Fisher) using the Boltzmann equation to determine the inflection point of the transition curve.

[10] = target: T6, TIF1 (Homo sapiens, UniProt O15164); set-up: Thermal shift assay (SYPRO Orange DSF) of recombinant kinase domains; Tm shift
T6 construct: gene TRIM24
T6 sequence (O15164 1-1050): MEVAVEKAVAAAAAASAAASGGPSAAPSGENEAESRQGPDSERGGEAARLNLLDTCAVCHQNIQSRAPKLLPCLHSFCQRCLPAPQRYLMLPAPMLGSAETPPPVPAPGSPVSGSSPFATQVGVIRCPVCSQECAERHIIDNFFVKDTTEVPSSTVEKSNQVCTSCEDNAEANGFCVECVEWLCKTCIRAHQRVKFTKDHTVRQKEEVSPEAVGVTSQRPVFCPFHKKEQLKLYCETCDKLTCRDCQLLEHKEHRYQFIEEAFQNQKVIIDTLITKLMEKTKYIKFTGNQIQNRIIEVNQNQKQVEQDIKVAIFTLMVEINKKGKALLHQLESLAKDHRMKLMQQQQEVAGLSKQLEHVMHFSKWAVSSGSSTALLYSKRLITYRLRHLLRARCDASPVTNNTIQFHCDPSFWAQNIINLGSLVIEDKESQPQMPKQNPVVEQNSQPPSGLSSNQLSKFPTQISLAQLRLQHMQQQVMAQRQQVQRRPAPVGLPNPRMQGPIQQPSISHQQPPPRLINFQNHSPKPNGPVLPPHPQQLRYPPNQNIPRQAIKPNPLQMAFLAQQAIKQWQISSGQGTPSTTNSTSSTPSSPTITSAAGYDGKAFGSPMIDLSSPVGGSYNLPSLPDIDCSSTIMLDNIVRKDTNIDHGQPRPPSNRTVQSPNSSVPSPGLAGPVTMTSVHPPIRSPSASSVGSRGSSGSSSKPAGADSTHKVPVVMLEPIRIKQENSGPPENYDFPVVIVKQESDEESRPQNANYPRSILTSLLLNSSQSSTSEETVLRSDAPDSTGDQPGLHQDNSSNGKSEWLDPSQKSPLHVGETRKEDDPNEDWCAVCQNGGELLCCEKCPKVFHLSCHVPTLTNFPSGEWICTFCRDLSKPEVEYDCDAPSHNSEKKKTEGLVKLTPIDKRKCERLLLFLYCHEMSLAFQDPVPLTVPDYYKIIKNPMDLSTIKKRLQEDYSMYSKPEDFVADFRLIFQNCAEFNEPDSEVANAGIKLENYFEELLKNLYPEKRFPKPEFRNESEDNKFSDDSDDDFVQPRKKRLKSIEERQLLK
Procedure: as §1

T4 sequence (P28482 whole entry, the tested form may be a part): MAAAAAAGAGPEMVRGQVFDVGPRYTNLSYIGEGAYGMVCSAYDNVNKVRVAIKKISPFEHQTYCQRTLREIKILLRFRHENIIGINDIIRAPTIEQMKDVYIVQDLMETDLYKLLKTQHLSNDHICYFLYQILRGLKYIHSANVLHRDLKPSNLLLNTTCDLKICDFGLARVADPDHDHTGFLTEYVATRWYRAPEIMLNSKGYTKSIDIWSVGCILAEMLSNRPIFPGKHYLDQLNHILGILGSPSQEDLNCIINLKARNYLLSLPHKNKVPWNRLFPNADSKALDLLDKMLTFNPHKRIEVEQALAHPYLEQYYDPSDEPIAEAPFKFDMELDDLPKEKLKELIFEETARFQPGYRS
T1 sequence (Q15418 whole entry, the tested form may be a part): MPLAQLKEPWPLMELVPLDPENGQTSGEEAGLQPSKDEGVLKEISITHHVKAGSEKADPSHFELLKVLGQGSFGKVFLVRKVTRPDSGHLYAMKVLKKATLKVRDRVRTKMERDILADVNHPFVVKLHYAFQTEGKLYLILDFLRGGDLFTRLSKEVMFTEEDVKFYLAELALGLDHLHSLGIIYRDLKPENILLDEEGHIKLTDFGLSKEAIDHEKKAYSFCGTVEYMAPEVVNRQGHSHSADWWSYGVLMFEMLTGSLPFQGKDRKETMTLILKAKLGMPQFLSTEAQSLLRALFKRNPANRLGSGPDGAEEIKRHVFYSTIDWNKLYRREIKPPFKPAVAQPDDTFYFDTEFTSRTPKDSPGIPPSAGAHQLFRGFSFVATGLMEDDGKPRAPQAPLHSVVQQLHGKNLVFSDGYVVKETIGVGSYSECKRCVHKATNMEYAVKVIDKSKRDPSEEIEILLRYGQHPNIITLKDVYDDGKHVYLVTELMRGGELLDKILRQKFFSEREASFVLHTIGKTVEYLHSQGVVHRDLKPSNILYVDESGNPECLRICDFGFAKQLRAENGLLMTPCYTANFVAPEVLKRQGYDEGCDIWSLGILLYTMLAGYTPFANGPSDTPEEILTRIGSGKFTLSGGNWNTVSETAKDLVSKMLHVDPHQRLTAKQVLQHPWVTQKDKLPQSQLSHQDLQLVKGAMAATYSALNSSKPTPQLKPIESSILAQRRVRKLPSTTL
Chain of FGFR2 (P21802 whole entry, the tested form may be a part): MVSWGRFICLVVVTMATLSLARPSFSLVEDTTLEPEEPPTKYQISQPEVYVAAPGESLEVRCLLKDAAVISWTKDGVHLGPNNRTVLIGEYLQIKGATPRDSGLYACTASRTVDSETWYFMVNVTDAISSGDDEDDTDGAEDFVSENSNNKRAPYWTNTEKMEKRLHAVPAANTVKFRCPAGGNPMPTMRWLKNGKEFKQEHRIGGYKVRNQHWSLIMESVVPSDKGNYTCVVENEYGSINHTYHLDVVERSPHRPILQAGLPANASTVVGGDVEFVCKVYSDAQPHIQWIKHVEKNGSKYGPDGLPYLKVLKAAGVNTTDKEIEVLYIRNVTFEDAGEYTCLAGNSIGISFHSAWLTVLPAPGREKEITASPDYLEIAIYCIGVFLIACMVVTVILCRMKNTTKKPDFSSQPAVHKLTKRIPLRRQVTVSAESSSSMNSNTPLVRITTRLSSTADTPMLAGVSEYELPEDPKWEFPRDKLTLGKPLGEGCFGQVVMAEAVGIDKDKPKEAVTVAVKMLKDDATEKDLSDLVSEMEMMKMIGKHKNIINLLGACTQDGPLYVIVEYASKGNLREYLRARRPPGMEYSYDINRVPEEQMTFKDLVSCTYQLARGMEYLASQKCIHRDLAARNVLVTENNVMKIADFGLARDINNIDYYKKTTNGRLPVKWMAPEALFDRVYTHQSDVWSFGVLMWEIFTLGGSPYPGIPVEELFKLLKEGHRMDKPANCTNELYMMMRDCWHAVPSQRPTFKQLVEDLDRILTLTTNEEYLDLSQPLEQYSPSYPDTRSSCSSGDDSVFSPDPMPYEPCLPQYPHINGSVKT
Chain of PAK4 (O96013 whole entry, the tested form may be a part): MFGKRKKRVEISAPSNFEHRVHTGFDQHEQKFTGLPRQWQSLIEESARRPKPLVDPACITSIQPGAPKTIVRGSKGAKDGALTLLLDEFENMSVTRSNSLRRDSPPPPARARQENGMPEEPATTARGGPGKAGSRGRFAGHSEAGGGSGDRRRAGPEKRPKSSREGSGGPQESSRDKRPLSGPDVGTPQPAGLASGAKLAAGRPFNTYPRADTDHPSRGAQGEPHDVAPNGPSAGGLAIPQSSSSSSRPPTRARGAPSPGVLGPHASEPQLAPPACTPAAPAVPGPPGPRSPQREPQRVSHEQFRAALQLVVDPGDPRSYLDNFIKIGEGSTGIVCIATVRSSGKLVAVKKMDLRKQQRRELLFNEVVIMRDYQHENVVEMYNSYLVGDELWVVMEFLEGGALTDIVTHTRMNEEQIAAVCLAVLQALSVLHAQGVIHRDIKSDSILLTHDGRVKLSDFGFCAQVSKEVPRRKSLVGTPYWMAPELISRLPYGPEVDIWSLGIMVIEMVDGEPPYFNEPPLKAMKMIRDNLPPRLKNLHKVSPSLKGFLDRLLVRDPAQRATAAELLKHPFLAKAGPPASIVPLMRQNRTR
Chain of DAPK1 (P53355 whole entry, the tested form may be a part): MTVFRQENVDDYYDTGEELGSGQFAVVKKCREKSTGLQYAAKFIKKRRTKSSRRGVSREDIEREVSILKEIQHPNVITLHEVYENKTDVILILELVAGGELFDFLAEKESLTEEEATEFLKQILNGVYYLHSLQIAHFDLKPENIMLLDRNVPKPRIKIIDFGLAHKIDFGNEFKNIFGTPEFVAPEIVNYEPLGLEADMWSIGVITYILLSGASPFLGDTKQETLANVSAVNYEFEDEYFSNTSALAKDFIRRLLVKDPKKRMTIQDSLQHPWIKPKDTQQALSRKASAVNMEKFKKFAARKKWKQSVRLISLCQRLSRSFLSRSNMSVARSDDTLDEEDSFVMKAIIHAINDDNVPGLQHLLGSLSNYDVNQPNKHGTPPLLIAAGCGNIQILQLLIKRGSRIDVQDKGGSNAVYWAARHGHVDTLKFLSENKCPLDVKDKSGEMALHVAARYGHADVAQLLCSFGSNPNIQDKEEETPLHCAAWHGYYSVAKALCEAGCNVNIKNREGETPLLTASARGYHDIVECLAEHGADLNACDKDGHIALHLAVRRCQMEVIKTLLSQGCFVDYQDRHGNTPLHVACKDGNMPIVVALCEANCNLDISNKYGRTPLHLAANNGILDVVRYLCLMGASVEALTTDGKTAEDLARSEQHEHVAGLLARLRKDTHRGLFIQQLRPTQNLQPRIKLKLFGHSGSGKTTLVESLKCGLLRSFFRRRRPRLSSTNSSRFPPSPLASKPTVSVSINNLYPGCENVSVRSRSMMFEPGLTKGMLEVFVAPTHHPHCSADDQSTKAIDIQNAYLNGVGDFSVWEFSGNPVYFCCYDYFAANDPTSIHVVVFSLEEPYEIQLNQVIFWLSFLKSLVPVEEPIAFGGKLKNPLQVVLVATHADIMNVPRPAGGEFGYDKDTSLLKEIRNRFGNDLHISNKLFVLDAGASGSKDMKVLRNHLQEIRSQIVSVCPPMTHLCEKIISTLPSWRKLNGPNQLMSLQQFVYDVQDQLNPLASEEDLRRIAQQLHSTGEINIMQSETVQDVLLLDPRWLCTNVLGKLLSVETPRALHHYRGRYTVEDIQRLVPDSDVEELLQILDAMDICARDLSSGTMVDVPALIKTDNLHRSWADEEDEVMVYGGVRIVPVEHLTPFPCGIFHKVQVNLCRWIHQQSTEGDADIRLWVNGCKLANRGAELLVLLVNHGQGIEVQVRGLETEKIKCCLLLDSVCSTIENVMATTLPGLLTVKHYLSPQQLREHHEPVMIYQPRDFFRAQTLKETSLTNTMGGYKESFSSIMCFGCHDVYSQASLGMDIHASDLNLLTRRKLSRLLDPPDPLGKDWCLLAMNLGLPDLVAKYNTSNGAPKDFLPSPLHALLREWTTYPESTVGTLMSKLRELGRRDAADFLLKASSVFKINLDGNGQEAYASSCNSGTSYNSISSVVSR
T5 sequence (Q9Y243 whole entry, the tested form may be a part): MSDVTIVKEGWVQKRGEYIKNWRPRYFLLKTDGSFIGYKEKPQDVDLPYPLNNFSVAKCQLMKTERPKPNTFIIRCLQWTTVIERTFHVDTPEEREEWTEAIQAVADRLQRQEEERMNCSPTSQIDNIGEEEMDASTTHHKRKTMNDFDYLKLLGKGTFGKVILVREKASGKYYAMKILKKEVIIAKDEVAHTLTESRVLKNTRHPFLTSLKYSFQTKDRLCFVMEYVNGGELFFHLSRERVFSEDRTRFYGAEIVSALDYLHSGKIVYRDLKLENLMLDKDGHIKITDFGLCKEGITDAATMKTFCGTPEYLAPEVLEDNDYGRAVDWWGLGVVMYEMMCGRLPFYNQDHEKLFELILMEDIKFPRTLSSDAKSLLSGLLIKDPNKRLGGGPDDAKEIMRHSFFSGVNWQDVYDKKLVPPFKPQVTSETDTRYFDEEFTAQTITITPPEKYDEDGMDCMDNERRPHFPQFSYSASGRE
T3 sequence (P53779 whole entry, the tested form may be a part): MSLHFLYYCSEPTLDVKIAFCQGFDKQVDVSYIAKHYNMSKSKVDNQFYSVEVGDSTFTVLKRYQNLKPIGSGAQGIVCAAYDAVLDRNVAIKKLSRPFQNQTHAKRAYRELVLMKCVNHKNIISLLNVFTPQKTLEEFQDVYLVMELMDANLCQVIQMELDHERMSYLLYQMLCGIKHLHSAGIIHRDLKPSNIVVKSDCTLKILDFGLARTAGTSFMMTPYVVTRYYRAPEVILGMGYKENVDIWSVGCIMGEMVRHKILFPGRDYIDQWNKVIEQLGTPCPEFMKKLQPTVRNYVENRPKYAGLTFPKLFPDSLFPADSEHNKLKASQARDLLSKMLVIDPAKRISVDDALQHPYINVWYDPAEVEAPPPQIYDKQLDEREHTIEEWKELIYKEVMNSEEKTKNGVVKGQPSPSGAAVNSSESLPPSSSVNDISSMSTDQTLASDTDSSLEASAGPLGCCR

ΔTm at 10 µM ([1]; read-out: 7c): 1 °C | ΔTm at 10 µM ([2]; read-out: 7c): 0 °C | ΔTm at 10 µM ([3]; read-out: 7c): 1 °C | ΔTm at 10 µM ([4]; read-out: 7c): 4 °C | ΔTm at 10 µM ([5]; read-out: 7c): 1 °C | ΔTm at 10 µM ([6]; read-out: 7c): 6 °C | ΔTm at 10 µM ([7]; read-out: 7c): 0 °C | ΔTm at 10 µM ([8]; read-out: 7c): 0 °C | ΔTm at 10 µM ([9]; read-out: 7c): -1 °C | ΔTm at 10 µM ([10]; read-out: 7c): -1 °C
SMILES: COc1ccc(OC(C)C)cc1Nc1cncc(-c2ccc(C(=O)O)cc2)n1 [7c]

ΔTm at 10 µM ([1]; read-out: 6c): 3 °C | ΔTm at 10 µM ([2]; read-out: 6c): 2 °C | ΔTm at 10 µM ([3]; read-out: 6c): 2 °C | ΔTm at 10 µM ([4]; read-out: 6c): 8 °C | ΔTm at 10 µM ([5]; read-out: 6c): 3 °C | ΔTm at 10 µM ([6]; read-out: 6c): 7 °C | ΔTm at 10 µM ([7]; read-out: 6c): 0 °C | ΔTm at 10 µM ([8]; read-out: 6c): 0 °C | ΔTm at 10 µM ([9]; read-out: 6c): -1 °C | ΔTm at 10 µM ([10]; read-out: 6c): -2 °C
SMILES: CC(C)Oc1ccc2ccn(-c3cncc(-c4ccc(C(=O)O)cc4)n3)c2c1 [6c]

ΔTm at 10 µM ([1]; read-out: 2): 3 °C | ΔTm at 10 µM ([2]; read-out: 2): 1 °C | ΔTm at 10 µM ([3]; read-out: 2): 4 °C | ΔTm at 10 µM ([4]; read-out: 2): 10 °C | ΔTm at 10 µM ([5]; read-out: 2): 6 °C | ΔTm at 10 µM ([6]; read-out: 2): 9 °C | ΔTm at 10 µM ([7]; read-out: 2): 0 °C | ΔTm at 10 µM ([8]; read-out: 2): 0 °C | ΔTm at 10 µM ([9]; read-out: 2): 1 °C | ΔTm at 10 µM ([10]; read-out: 2): 0 °C
SMILES: CC(C)Nc1ccc2cnn(-c3cncc(-c4ccc(C(=O)O)cc4)n3)c2c1 [compound 2, 2]
